Data reported in PMC7549214 (Malaria Journal, 2020).
Read-outs that look alike come from different tables or passages of the source.

Experiments:
[1] = system: P. falciparum Pf3D7^0087/N9; assay: Therapeutic efficacy in SCID mouse model of human falciparum malaria; type: in vivo, Plasmodium falciparum in NODscidIL2Rγ^null mice; details: for Parasitaemia after 4 days of administration: intraperitoneally, vehicle control 8.43%; for Parasitaemia: oral, vehicle-treated group 7.69%, n = 2
Method: For the dose–response study, 50 mg of the compound was used in quintuplicate. Chloroquine (Sigma-Aldrich C6628) was used as the standard drug. The volume of 10 mL/kg was used for administration. Briefly, at day 0, in vitro cultures with approximately 2–5% parasitaemia were taken and diluted in culture medium to 2 × 10^7 parasitized erythrocytes per 0.1 ml. This suspension was injected iv into experimental groups and a control group of n = 2 mice. From day 3 to 6 days post-infection, the experimental groups were treated with a single daily dose by the oral (po) route. Other routes, such as intramuscular and subcutaneous, were also tested using the same protocol. The drug concentration was adjusted in a way to administer 10 ml/kg. […] At 7th day post-infection, 2 μl tail blood was taken. The haematocrit was determined by FACS and parasitaemia by microscopy on > 10,000 red blood cells.
The difference of the mean infection rate of the control group (= 100%) to the test group was calculated and expressed as per cent reduction. […] The results were expressed as a reduction of parasitaemia at day 7 in % as compared to the untreated control group. Values are expressed as mean ± SD.

[2] = in vitro; type: in vitro ADME; details: human, plasma
[3] = system: human HDAC (HeLa nuclear extract); assay: HDAC activity screening, fluorescence-based, HeLa nuclear extract; type: biochemical
Method: HeLa nuclear extract was used as the enzyme source. […] The assay was performed in 96-well black microplates, and the total volume of the assay was set at 100 µl. […] The enzyme mixture was prepared by adding […] of the diluted enzyme (HeLa nuclear extract) to […] of HDAC buffer. From the enzyme mixture, 40 µl was taken and mixed with 10 µl of test compound (final concentration from 0.01 to 10 µM) or vehicle (control). The final mixture (50 µl) was added to each well which was then pre-incubated at 37 °C for 10 min. The HDAC reaction was started by adding 50 µl of HDAC substrate: […] The plate was incubated at 37 °C for 45 min. Trypsin stop solution (50 µl) was added to the well, and the plate was further incubated at 37 °C for 15 min to stop the reaction. The release of AMC was monitored by measuring the fluorescence at an excitation wavelength of 360 nm and an emission wavelength of 460 nm. Buffer and substrate alone served as blank.

[4] = system: male gametocytes; assay: Male gametocyte functional viability assay; type: cell-based; details: Plasmodium falciparum
Method: Gametocyte cultures were tested for functional viability and maturity after 14 days. Testing functional viability was done by quantifying male gametocyte formation, which was carried out by withdrawing 200 μl of culture. Following this, culture was centrifuged, and the pellet was resuspended in 5 μl ookinete medium (RPMI medium with 25 mM HEPES, 50 mg/l hypoxanthine, 2 g/l sodium bicarbonate, 100 μM xanthurenic acid, and 10% A^+ human serum). The culture was observed under a microscope. […] The plates were then incubated at 37 °C for 24 h. Gamete formation was induced on day 15 and observed under the microscope following the method described by Ruecker et al.. The assay was performed using four independent biological replicates.

[5] = system: Dd2; assay: microbe, parasite or virus in culture; type: cell-based; details: Plasmodium falciparum
[6] = molecular target: CYP 3A4 (Homo sapiens, UniProt P08684); assay: CYP inhibition; type: in vitro ADME
[7] = Plasma protein binding; type: in vitro ADME; details: rat, read-out: Plasma protein binding (% bound)
[8] = molecular target: CYP2C9 (Homo sapiens, UniProt P11712); assay: CYP inhibition; type: in vitro ADME; details: read-out: CYP inhibition IC50, CYP 2C9
[9] = system: THP-1; assay: Cytotoxicity; type: cell-based
[10] = Cytotoxicity; type: cell-based; details: human, THP-1 cells
[11] = Plasma protein binding; type: in vitro ADME; details: monkey, read-out: Plasma protein binding (% bound)
[12] = molecular target: CYP2C19 (Homo sapiens, UniProt P33261); assay: CYP inhibition; type: in vitro ADME; details: read-out: CYP inhibition IC50, CYP 2C19
[13] = in vitro; type: in vitro ADME; details: mouse, plasma
[14] = in vitro; type: in vitro ADME; details: dog, plasma
[15] = system: female gametocytes; assay: Female gametocyte functional viability assay; type: cell-based; details: Plasmodium falciparum
[16] = system: cytochrome P450 (CYP) isoforms (any of those tested); assay: CYP inhibition, isoforms tested (summary); type: in vitro ADME; details: any of the CYP isoforms tested
[17] = system: Plasmodium falciparum 3D7; assay: Plasmodium falciparum asexual blood-stage (ABS) assay; type: cell-based; details: Plasmodium falciparum, 3D7
Method: Plasmodium falciparum 3D7 strain was used for the P. falciparum asexual blood-stage (ABS) assay, for which the cells were resuscitated from the stabilate and maintained at 5% haematocrit. Red blood cells obtained from the hospital were used to maintain the culture at 1% parasitaemia while screening.
Plasmodium falciparum 3D7 cells were used as a target strain for the assay. Mefloquine (Sigma-Aldrich) was used as a standard inhibitor. At day 1, […] of 10 mM mefloquine was added to columns 12 and 24 of the sterile 384-well black, clear-bottom, cell culture assay plates followed by compound curves which were added using Echo. The P. falciparum 3D7 cells were counted and 20 ml of culture was prepared at 5% haematocrit, 0.3% parasitaemia (as one batch, i.e., 12 plates, prepare 260 ml, to allow for WellMate prime volume) for each plate. From this, 50 µl of culture was added to all wells on all plates using WellMate with small bore tubing on full (S-1) speed. The plates were placed on the bottom shelf of the incubator, with a maximum stack height of 4 plates, preferring the front of the shelf and were incubated for 72 h at 37 °C in an atmosphere of special gas mix (1% O2, 3% CO2, balance N2).
. Ten μl of the prepared buffer was added to each well on each of the assay plates and incubated overnight in the dark at room temperature. The plates were read on Victor plate reader using ‘384sybrgreen’ protocol (excitation 485 nm, emission 528 nm) after which the plate contents were aspirated into 5% Virkon, and disposed of after autoclaving. Percentage inhibition for each test compound was calculated using the following equation: %Inhibition=100-TEST COMPOUND-BLANK/NO INHIBITION-BLANK∗100)
EC50 values for standard inhibitors were determined using non-linear regression curve-fitting within Activity Base data analysis template.

Chain of CYP 3A4 (P08684 whole entry, species assumed): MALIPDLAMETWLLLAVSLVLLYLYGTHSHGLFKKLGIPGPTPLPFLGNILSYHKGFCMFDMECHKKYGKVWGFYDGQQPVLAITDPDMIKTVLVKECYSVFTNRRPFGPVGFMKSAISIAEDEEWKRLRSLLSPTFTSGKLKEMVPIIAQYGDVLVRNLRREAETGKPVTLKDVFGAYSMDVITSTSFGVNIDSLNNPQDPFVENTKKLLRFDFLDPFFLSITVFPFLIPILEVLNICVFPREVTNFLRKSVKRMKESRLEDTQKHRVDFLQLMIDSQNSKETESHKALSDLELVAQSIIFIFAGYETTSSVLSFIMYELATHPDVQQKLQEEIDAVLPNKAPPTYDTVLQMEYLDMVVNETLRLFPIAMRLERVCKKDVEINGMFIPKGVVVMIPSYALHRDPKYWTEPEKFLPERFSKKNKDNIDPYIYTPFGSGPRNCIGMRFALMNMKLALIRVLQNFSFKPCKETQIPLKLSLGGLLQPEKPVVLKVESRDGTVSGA
Chain of CYP2C9 (P11712 whole entry, species assumed): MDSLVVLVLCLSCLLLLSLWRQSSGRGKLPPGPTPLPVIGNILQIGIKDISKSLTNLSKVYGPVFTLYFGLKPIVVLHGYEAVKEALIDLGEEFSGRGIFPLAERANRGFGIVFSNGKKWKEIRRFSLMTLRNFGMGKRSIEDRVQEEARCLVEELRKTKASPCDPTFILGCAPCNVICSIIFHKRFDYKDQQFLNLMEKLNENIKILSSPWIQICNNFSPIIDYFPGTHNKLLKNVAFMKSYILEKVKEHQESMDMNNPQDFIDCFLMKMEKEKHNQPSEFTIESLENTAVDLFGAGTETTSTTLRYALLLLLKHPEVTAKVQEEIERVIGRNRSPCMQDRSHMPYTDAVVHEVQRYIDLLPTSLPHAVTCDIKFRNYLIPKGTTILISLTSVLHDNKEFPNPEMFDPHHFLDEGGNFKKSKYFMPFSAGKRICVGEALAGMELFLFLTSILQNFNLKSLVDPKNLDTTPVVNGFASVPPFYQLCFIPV
Chain of CYP2C19 (P33261 whole entry, species assumed): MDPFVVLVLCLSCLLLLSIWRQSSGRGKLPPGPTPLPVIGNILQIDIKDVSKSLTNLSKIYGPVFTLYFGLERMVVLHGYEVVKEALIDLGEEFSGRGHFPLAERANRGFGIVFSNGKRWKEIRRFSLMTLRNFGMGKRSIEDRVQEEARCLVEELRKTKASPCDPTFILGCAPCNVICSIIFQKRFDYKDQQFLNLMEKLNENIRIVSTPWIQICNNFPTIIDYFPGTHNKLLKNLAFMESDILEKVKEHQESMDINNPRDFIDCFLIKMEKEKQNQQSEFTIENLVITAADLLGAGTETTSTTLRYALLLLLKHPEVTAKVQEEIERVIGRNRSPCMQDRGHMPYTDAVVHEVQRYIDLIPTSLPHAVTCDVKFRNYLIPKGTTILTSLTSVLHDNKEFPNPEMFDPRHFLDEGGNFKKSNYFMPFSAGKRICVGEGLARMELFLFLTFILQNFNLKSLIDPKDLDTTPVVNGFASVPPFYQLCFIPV

SMILES: O=C(NO)c1ccc(Cn2cc(-c3ccc(CN4CCCC4)cc3)nn2)cc1 [FNDR-20123]
- Reduction of parasitaemia ([1]; dosed orally and subcutaneously): reduce parasitaemia significantly
- Parasitaemia after 4 days of administration ([1]; 50 mg/kg bw): 0.12%
- Parasitaemia after 4 days of administration ([1]; 100 mg/kg bw): 0.19%
- Parasitaemia ([1]; 10 mg/kg bw for 4 days): 6.5%
- Parasitaemia ([1]; 50 mg/kg bw for 4 days): 2.57%
- remaining at 4 h [2]: 98.9%
- Human HDAC % inhibition @1μM ([3]; 1μM): 95%
- IC50 ([3]; HeLa nuclear extract, read-out: Human HDAC IC50): 3 nM
- IC50 ([3]; single experiment assays, read-out: IC50 HeLa nuclear extract): 3 nM
- IC50 [4]: 190 nM
- IC50 [5]: 17.5 nM
- IC50 [6]: 27000 nM
- fraction unbound [7]: 0.581
- IC50 [8]: > 60000 nM
- Cytotoxicity to THP-1 cell line [9]: negligible cytotoxicity
- IC50 [10]: 114000 nM
- fraction unbound [11]: > 0.8
- IC50 [12]: > 60000 nM
- remaining at 4 h [13]: 89.2%
- remaining at 4 h [14]: 97.7%
- IC50 [15]: > 5000 nM
- IC50 [16]: > 25000 nM
- IC50 ([17]; read-out: Anti-malarial IC50): 40 nM
- IC50 ([17]; read-out: Anti-malarial activity Asexual Blood Stage IC50): 42 nM
